This is an account of results in publication PMC8235719, “New RAD51 Inhibitors to Target Homologous Recombination in Human Cells” (Genes, 2021).

Molecules are shown by their SMILES.

The subject of this assay is γ-H2A.X foci in U-2 OS IndDR-GFP cells. As to the kind of experiment: γ-H2A.X foci formation (immunofluorescence). Type of assay: cell-based, human. The settings on record: indicated concentrations, cisplatin-treated cells. The protocol: U-2 OS IndDR-GFP cells were seeded into 8-well polystyrene vessel culture slides at 5 × 10^4 cells/well. The next day, cells were pretreated with B02-iso or 0.1% DMSO (for control cells) for 1 h, followed by the treatment with 5 µM cisplatin for 4 h or left untreated (for control cells). After 4 h of incubation, cells were placed on ice, washed with PBS buffer (twice, 5 min each), pretreated with 0.5% Triton X-100 for 5 min, washed with PBS (twice, 5 min each). Cells were removed from ice and fixed with 4% methanol-free formaldehyde (Pierce; Waltham, […], USA) in PBS for 10 min. Cells were washed with PBS (twice, 5 min each), placed on ice, and permeabilized with 1% Triton X-100 in PBS for 10 min. Cells were removed from ice, washed with PBS (once, 5 min), blocked with a blocking buffer (5% BSA (Bovine Serum Albumin) in PBS) for 30 min, and incubated with rabbit polyclonal RAD51 antibody (1:1000, GeneTex, GTX100469) and mouse monoclonal anti-phospho-histone H2A.X (Ser 139) antibody (1:20,000, clone JBW301, Millipore 05-636) in blocking buffer, containing 0.3% Triton X-100 overnight at 4 °C. […] For foci quantification, 50 cells were chosen for each treatment condition at random, and foci number was counted using ImageJ software. […]

On to `O=c1nc(/C=C/c2cccnc2)n(Cc2ccccc2)c2ccccc12` [B02-iso], for which the “Level of γ-H2A.X foci” value is “did not reduce the level of γ-H2A.X foci”.
